Among the data in patent US20260193268A1, “TRICYCLIC PI3Ka INHIBITOR, PREPARATION METHOD THEREFOR, AND PHARMACEUTICAL USE THEREOF” (WIGEN BIOMEDICINE TECHNOLOGY (SHANGHAI) CO., LTD., priority 2022, published 2026) are IC50 values, retold here.

The structures appear in SMILES notation. Where two headings read alike, the source gives them in different places.

In assay [1] the test system is HCC1954 cells (with PI3Kα H1047R mutation). Briefly: In vitro inhibition of HCC1954 cell proliferation (CellTiter-Lumi). Type of assay: cell-based. The following applies: Homo sapiens, HCC1954, 144 h, HCC1954 cells, 144 h, CellTiter-Lumi. Here is the method: Assay for In Vitro Inhibition of HCC1954 Cell Proliferation by Compounds of the Present Disclosure
The growth of the cells was evaluated, and the IC50 for the inhibition of cell growth by the compounds was calculated.

Assay [2] concerns MCF-7 cells (with PI3Kα E545K mutation). Briefly: In vitro inhibition of MCF-7 cell proliferation (CellTiter-Lumi). Type of assay: cell-based. The following applies: Homo sapiens, MCF7, 144 h. In a few lines:
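Growth IC50 derived from ATP luminescence (CellTiter-Lumi) after 144 h exposure of MCF-7 cells carrying PI3Kα E545K, plated 2000 cells/well and dosed with serial dilutions one day after seeding.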

Where [3] appears, read: class symbols, read-out: Inhibitory activity against HCC1954 cells (IC50), class symbols.
Setting [4] is: class symbols, read-out: Inhibitory activity against MCF-7 cells (IC50), class symbols.
The mark [5] stands for this setting: numeric values, read-out: Inhibitory activity against HCC1954 cells (IC50).
[6] abbreviates: numeric values, read-out: Inhibitory activity against MCF-7 cells (IC50).

Broadly, the IC50 is the point on the concentration scale where inhibition reaches its midpoint. With `COCCNC(C)(C)C=C(C#N)C(=O)Nc1ccc(N2CC(N3CCN(c4ccc5c(c4)-c4nc(N6C(=O)OC[C@H]6C(F)F)cn4CCO5)CC3)C2)cn1` [Compound 301], the half-maximal inhibitory concentration (IC50) in assay [1] (setting [3]) and in assay [2] (setting [4]) was under 50 nM each time.

As for `C=CC(=O)Nc1ccc(C#CC2CCN(c3ccc4c(c3)-c3nc(N5C(=O)OC[C@H]5C(F)F)cn3CCO4)CC2)cc1` [Compound 179], the concentration for half-maximal inhibition (IC50) in assay [1] (setting [3]) and in assay [2] (setting [4]) was 50 to 100 nM throughout.

With `CNC(C)(C)C=C(C#N)C(=O)Nc1ccc(N2CC(N3CCN(c4ccc5c(c4)-c4nc(N6C(=O)OC[C@H]6C(F)F)cn4CCO5)CC3)C2)cc1Cl` [Compound 359], the IC50 in assay [1] (setting [3]) and in assay [2] (setting [4]) was under 50 nM throughout.

With `CC(C)(C)C=C(C#N)C(=O)Nc1ccc(N2CC(N3CCN(c4ccc5c(c4)-c4nc(N6C(=O)OC[C@H]6C(F)F)cn4CCO5)CC3)C2)c(F)c1` [Compound 223], the concentration for half-maximal inhibition (IC50) in assay [1] (setting [3]) and in assay [2] (setting [4]) was under 50 nM throughout.

Turning to `COC(=O)N1CCN(C(C)(C)C=C(C#N)C(=O)Nc2ccc(N3CC(N4CCN(c5ccc6c(c5)-c5nc(N7C(=O)OC[C@H]7C(F)F)cn5CCO6)CC4)C3)cc2)CC1` [Compound 311], the IC50 in assay [1] (setting [3]) and in assay [2] (setting [4]) was under 50 nM throughout.

Regarding `CC(C)(N)C=C(C#N)C(=O)Nc1ccc(N2CC(N3CCN(c4ccc5c(c4)-c4nc(N6C(=O)OC[C@H]6C(F)F)cn4CCO5)CC3)C2)cn1` [Compound 291], the IC50 in assay [1] (setting [3]) and in assay [2] (setting [4]) was under 50 nM in each case.

With `C=CC(=O)N1CCc2cc(N3CC(N4CCN(c5ccc6c(c5)-c5nc(N7C(=O)OC[C@H]7C(F)F)cn5CCO6)CC4)C3)cnc21` [Compound 167], the values for the IC50 in assay [1] (setting [5]) and in assay [2] (setting [6]) were 544 nM and 219 nM, respectively.

On to `CNC(C)(C)C=C(C#N)C(=O)Nc1ccc(N2CCC(N3CCN(c4ccc5c(c4)-c4nc(N6C(=O)OCC6C(F)F)cn4CCO5)CC3)C2)cc1` (stereo not drawn) [Compound 215], for which the IC50 in assay [1] (setting [3]) and in assay [2] (setting [4]) was under 50 nM each time.

Turning to `C=CC(=O)N1CCc2cc(CN3CCN(c4ccc5c(c4)-c4nc(N6C(=O)OC[C@H]6C(F)F)cn4CCO5)CC3)ccc2C1` [Compound 207], the IC50 in assay [1] (setting [3]) was 50 to 100 nM; in assay [2] (setting [4]) it was under 50 nM.

Regarding `CC(C)C=C(C#N)C(=O)Nc1cnc(N2CC(N3CCN(c4ccc5c(c4)-c4nc(N6C(=O)OC[C@H]6C(F)F)cn4CCO5)CC3)C2)nc1` [Compound 262], the 50% inhibitory concentration (IC50) in assay [1] (setting [3]) and in assay [2] (setting [4]) was under 50 nM in each case.

In the case of `CC(C)(C=C(C#N)C(=O)Nc1cnc(N2CC(N3CCN(c4ccc5c(c4)-c4nc(N6C(=O)OC[C@H]6C(F)F)cn4CCO5)CC3)C2)nc1)N1CC2(COC2)C1` [Compound 264], the IC50 in assay [1] (setting [3]) and in assay [2] (setting [4]) was under 50 nM each time.

Regarding `CC(C)(C=C(C#N)C(=O)Nc1ccc(N2CC(N3CCN(c4ccc5c(c4)-c4nc(N6C(=O)OC[C@H]6C(F)F)cn4CCO5)CC3)C2)c(Cl)c1)NC1(C)COC1` [Compound 385], the IC50 in assay [1] (setting [3]) and in assay [2] (setting [4]) was under 50 nM each time.

As to `CC(C)(C=C(C#N)C(=O)Nc1ccc(N2CC(N3CCN(c4ccc5c(c4)-c4nc(N6C(=O)OC[C@H]6C(F)F)cn4CCO5)CC3)C2)c(Cl)c1)N1CCC1` [Compound 354], the IC50 in assay [1] (setting [3]) and in assay [2] (setting [4]) was under 50 nM in each case.

`CC(C)(C)C=C(C#N)C(=O)Nc1ccc(N2CC(N3CCN(c4ccc5c(c4)-c4nc(N6C(=O)OC[C@H]6C(F)F)cn4CCO5)CC3)C2)c(Cl)c1` [Compound 355]: the concentration for half-maximal inhibition (IC50) in assay [1] (setting [3]) and in assay [2] (setting [4]) was under 50 nM each time.

In the case of `C=C(C)C(=O)Nc1ccc(N2CC(CN3CCN(c4ccc5c(c4)-c4nc(N6C(=O)OC[C@H]6C(F)F)cn4CCO5)CC3)C2)cc1` [Compound 45], the values for the half-maximal inhibitory concentration (IC50) in assay [1] (setting [5]) and in assay [2] (setting [6]) were over 1000 nM and 244 nM, respectively.

With `C=CC(=O)N1CCc2nc(N3CC(N4CCN(c5ccc6c(c5)-c5nc(N7C(=O)OC[C@H]7C(F)F)cn5CCO6)CC4)C3)ccc21` [Compound 169], the IC50 in assay [1] (setting [5]) turned out to be 1 nM; in assay [2] (setting [6]), 0.1 nM.

In the case of `C=CC(=O)Nc1ccc(N2CCC(N3CCN(c4ccc5c(c4)-c4nc(N6C(=O)OC[C@H]6C(F)F)cn4CCO5)CC3)C2)cc1` (stereo partly drawn) [Compound 28], the IC50 in assay [1] (setting [5]) worked out at 180 nM; in assay [2] (setting [6]), 18 nM.

In the case of `CCC(C=C(C#N)C(=O)Nc1ccc(N2CC(N3CCN(c4ccc5c(c4)-c4nc(N6C(=O)OC[C@H]6C(F)F)cn4CCO5)CC3)C2)cc1)(CC)CC` [Compound 389], the half-inhibitory concentration (IC50) in assay [1] (setting [3]) and in assay [2] (setting [4]) was under 50 nM in each case.

In the case of `CN(C1CCC1)C(C)(C)C=C(C#N)C(=O)Nc1ccc(N2CC(N3CCN(c4ccc5c(c4)-c4nc(N6C(=O)OC[C@H]6C(F)F)cn4CCO5)CC3)C2)cc1` [Compound 156], the IC50 worked out at 49 nM in assay [1] (setting [5]) and 19 nM in assay [2] (setting [6]).

Take `CC(C)(C=C(C#N)C(=O)Nc1ccc(N2CC(N3CCN(c4ccc5c(c4)-c4nc(N6C(=O)OC[C@H]6C(F)F)cn4CCO5)CC3)C2)cc1)N1CCNCC1` [Compound 306]: the half-maximal inhibitory concentration (IC50) in assay [1] (setting [3]) and in assay [2] (setting [4]) was under 50 nM in each case.

Take `CC(=O)NC(C)(C)C=C(C#N)C(=O)Nc1ccc(N2CC(N3CCN(c4ccc5c(c4)-c4nc(N6C(=O)OC[C@H]6C(F)F)cn4CCO5)CC3)C2)c(Cl)c1` [Compound 357]: the half-maximal inhibitory concentration (IC50) in assay [1] (setting [3]) and in assay [2] (setting [4]) was under 50 nM each time.

In the case of `N#CC(=CC1(NC2COC2)CCC1)C(=O)Nc1ccc(N2CC(N3CCN(c4ccc5c(c4)-c4nc(N6C(=O)OC[C@H]6C(F)F)cn4CCO5)CC3)C2)cc1` [Compound 388], the 50% inhibitory concentration (IC50) in assay [1] (setting [3]) and in assay [2] (setting [4]) was under 50 nM in each case.

Turning to `C=CC(=O)Nc1ccc(N2CC(N3CCN(c4ccc5c(c4)-c4nc(N6C(=O)OC[C@H]6C(F)F)cn4CCO5)CC3)C2)cn1` [Compound 121], the concentration for half-maximal inhibition (IC50) is 3 nM in assay [1] (setting [5]) and 0.2 nM in assay [2] (setting [6]).

For the compound `C=CC(=O)N1CC(CN2CCC(N3CCN(c4ccc5c(c4)-c4nc(N6C(=O)OC[C@H]6C(F)F)cn4CCO5)CC3)CC2)C1` [Compound 64], the 50% inhibitory concentration (IC50) in assay [1] (setting [5]) was found to be 314 nM; in assay [2] (setting [6]), 33 nM.

On to `C=CC(=O)N1CCc2cc(N3CC(N4CCN(c5ccc6c(c5)-c5nc(N7C(=O)OC[C@H]7C(F)F)cn5CCO6)CC4)C3)cc(C#N)c21` [Compound 193], for which the 50% inhibitory concentration (IC50) in assay [1] (setting [3]) and in assay [2] (setting [4]) was under 50 nM throughout.

For `CN(C(=O)OC(C)(C)C)C(C)(C)C=C(C#N)C(=O)Nc1ccc(N2CC(N3CCN(c4ccc5c(c4)-c4nc(N6C(=O)OC[C@H]6C(F)F)cn4CCO5)CC3)C2)cc1` [Compound 335], the IC50 in assay [1] (setting [3]) and in assay [2] (setting [4]) was under 50 nM throughout.

As for `C=CC(=O)N1CCc2nc(N3CC(N4CCN(c5ccc6c(c5)-c5nc(N7C(=O)OC[C@H]7C(F)F)cn5CCO6)CC4)C3)sc2C1` [Compound 154], the 50% inhibitory concentration (IC50) in assay [1] (setting [5]) turned out to be 54 nM; in assay [2] (setting [6]), 4.9 nM.

For the compound `CNc1cc2c(cc1N1CCN(C3CN(c4ccc(NC(=O)C(C#N)=CC(C)(C)C)cc4)C3)CC1)-c1nc(N3C(=O)OC[C@H]3C(F)F)cn1CCO2` [Compound 319], the IC50 in assay [1] (setting [3]) and in assay [2] (setting [4]) was under 50 nM throughout.

Regarding `CC(=O)OCNC(C)(C)C=C(C#N)C(=O)Nc1ccc(N2CC(N3CCN(c4ccc5c(c4)-c4nc(N6C(=O)OC[C@H]6C(F)F)cn4CCO5)CC3)C2)cc1` [Compound 328], the IC50 in assay [1] (setting [3]) and in assay [2] (setting [4]) was under 50 nM throughout.

For the compound `CC(C)(N)C=C(C#N)C(=O)Nc1ccc(N2CC(N3CCN(c4ccc5c(c4)-c4nc(N6C(=O)OC[C@H]6C(F)F)cn4CCO5)CC3)C2)c(F)c1` [Compound 224], the IC50 in assay [1] (setting [3]) and in assay [2] (setting [4]) was under 50 nM in each case.
